According to patent US9623028B2, “Methods of treating a cancer using substituted pyrrolopyrimidine compounds, compositions thereof” (Signal Pharmaceuticals, LLC, priority 2014, dated 2017):
Like-named read-outs stand apart in the source and are kept apart here.

Experiments:
breast cancer cell lines = assay: cells; conditions: for IC50: read-out: Growth Inhibition IC50; for GI50: read-out: Growth inhibition GI50
[1] = tested on: non small cell lung cancer (NSCLC) cell lines; assay: cells
CLK1 = CLK1 (Homo sapiens (Human), UniProt P49759); assay: biochemical; conditions: read-out: CLK1 (% Inh.), % inhibition at 3 μM
CLK1, sequence (P49759 whole entry): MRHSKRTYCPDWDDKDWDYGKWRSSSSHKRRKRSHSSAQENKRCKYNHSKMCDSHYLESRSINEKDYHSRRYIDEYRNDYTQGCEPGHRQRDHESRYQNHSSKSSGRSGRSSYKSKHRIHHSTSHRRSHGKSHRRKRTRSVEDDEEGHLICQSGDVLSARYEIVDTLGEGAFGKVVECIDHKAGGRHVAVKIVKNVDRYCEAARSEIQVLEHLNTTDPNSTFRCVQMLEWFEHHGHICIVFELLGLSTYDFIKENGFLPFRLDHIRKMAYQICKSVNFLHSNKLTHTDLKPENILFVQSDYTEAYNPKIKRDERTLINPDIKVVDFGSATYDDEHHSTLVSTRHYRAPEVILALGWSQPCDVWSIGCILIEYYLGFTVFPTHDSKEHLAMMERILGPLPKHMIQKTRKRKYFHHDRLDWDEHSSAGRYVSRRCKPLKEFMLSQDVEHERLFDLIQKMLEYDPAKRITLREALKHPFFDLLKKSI

CLK2 = CLK2 (Homo sapiens (Human), UniProt P49760); assay: biochemical; conditions: read-out: CLK2 (% Inh.), % inhibition at 3 μM
CLK2, sequence (P49760 whole entry): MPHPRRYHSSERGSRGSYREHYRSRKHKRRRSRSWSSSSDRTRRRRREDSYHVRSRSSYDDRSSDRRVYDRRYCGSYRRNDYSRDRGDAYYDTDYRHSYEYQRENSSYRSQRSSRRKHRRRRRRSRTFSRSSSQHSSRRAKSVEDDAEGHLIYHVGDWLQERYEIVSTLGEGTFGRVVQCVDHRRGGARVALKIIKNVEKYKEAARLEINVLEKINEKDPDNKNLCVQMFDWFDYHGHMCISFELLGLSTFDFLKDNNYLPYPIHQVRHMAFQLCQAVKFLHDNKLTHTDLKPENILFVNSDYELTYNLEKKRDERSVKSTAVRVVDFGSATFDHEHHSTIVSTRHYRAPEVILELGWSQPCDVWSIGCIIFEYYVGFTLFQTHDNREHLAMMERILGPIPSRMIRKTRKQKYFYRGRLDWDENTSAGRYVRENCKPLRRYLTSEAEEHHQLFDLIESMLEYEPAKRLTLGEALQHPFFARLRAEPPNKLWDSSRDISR

[2] = Homo sapiens, MDA-MB-175-VII, 96 h

Compound: CNC(=O)c1ccc(Nc2nc(OC3CCCC3)c3c(-c4ccc(O)cc4)c[nH]c3n2)c(OC)c1 [Compound 3, 4-((4-(cyclopentyloxy)-5-(4-hydroxyphenyl)-7H-pyrrolo[2,3-d]pyrimidin-2-yl)amino)-3-methoxy-N-methylbenzamide]
- IC50 (breast cancer cell lines; EFM-192A, 96 h): 10000 nM
- GI50 (breast cancer cell lines; EFM-192A, 96 h): 10000 nM
- IC50 (breast cancer cell lines; HCC202, 96 h): 16000 nM
- GI50 (breast cancer cell lines; HCC202, 96 h): 15000 nM
- GI50 (breast cancer cell lines; HCC1500, 96 h): 53 nM
- IC50 (breast cancer cell lines; Homo sapiens, AU565, 96 h): 1100 nM
- GI50 (breast cancer cell lines; Homo sapiens, AU565, 96 h): 426 nM
- IC50 (breast cancer cell lines; Homo sapiens, BT-20, 96 h): 608 nM
- GI50 (breast cancer cell lines; Homo sapiens, BT-20, 96 h): 289 nM
- IC50 (breast cancer cell lines; Homo sapiens, BT-474, 96 h): 16300 nM
- GI50 (breast cancer cell lines; Homo sapiens, BT-474, 96 h): 6020 nM
- IC50 (breast cancer cell lines; Homo sapiens, BT-483, 96 h): 10000 nM
- GI50 (breast cancer cell lines; Homo sapiens, BT-483, 96 h): 704 nM
- IC50 (breast cancer cell lines; Homo sapiens, BT-549, 96 h): 180 nM
- GI50 (breast cancer cell lines; Homo sapiens, BT-549, 96 h): 85 nM
- IC50 (breast cancer cell lines; Homo sapiens, CAL-51, 96 h): 9 nM
- GI50 (breast cancer cell lines; Homo sapiens, CAL-51, 96 h): 8 nM
- IC50 (breast cancer cell lines; Homo sapiens, CAL-85-1, 96 h): 76 nM
- GI50 (breast cancer cell lines; Homo sapiens, CAL-85-1, 96 h): 25 nM
- IC50 (breast cancer cell lines; Homo sapiens, CAL-120, 96 h): 10000 nM
- GI50 (breast cancer cell lines; Homo sapiens, CAL-120, 96 h): 10000 nM
- IC50 (breast cancer cell lines; Homo sapiens, CAMA-1, 96 h): 10700 nM
- GI50 (breast cancer cell lines; Homo sapiens, CAMA-1, 96 h): 4900 nM
- IC50 (breast cancer cell lines; Homo sapiens, DU-4475, 96 h): 560 nM
- GI50 (breast cancer cell lines; Homo sapiens, DU-4475, 96 h): 82 nM
- IC50 (breast cancer cell lines; Homo sapiens, EFM-19, 96 h): 730 nM
- GI50 (breast cancer cell lines; Homo sapiens, EFM-19, 96 h): 67 nM
- IC50 (breast cancer cell lines; Homo sapiens, HCC38, 96 h): 47 nM
- GI50 (breast cancer cell lines; Homo sapiens, HCC38, 96 h): 17 nM
- IC50 (breast cancer cell lines; Homo sapiens, HCC70, 96 h): 1950 nM
- GI50 (breast cancer cell lines; Homo sapiens, HCC70, 96 h): 442 nM
- IC50 (breast cancer cell lines; Homo sapiens, HCC1143, 96 h): 17500 nM
- GI50 (breast cancer cell lines; Homo sapiens, HCC1143, 96 h): 286 nM
- IC50 (breast cancer cell lines; Homo sapiens, HCC1187, 96 h): 881 nM
- GI50 (breast cancer cell lines; Homo sapiens, HCC1187, 96 h): 470 nM
- IC50 (breast cancer cell lines; Homo sapiens, HCC1428, 96 h): 4970 nM
- GI50 (breast cancer cell lines; Homo sapiens, HCC1428, 96 h): 1090 nM
- IC50 (breast cancer cell lines; Homo sapiens, HCC1569, 96 h): 5430 nM
- GI50 (breast cancer cell lines; Homo sapiens, HCC1569, 96 h): 73 nM
- IC50 (breast cancer cell lines; Homo sapiens, HCC1937, 96 h): 10000 nM
- GI50 (breast cancer cell lines; Homo sapiens, HCC1937, 96 h): 7460 nM
- IC50 (breast cancer cell lines; Homo sapiens, HCC1954, 96 h): 482 nM
- GI50 (breast cancer cell lines; Homo sapiens, HCC1954, 96 h): 131 nM
- IC50 (breast cancer cell lines; Homo sapiens, HCC2157, 96 h): 120 nM
- GI50 (breast cancer cell lines; Homo sapiens, HCC2157, 96 h): 24 nM
- IC50 (breast cancer cell lines; Homo sapiens, Hs-578T, 96 h): 183 nM
- GI50 (breast cancer cell lines; Homo sapiens, Hs-578T, 96 h): 104 nM
- IC50 (breast cancer cell lines; Homo sapiens, MCF7, 96 h): 170 nM
- GI50 (breast cancer cell lines; Homo sapiens, MCF7, 96 h): 124 nM
- IC50 (breast cancer cell lines; Homo sapiens, MCF-10A, 96 h): 17400 nM
- GI50 (breast cancer cell lines; Homo sapiens, MCF-10A, 96 h): 426 nM
- IC50 (breast cancer cell lines; Homo sapiens, MCF-12A, 96 h): 3150 nM
- GI50 (breast cancer cell lines; Homo sapiens, MCF-12A, 96 h): 486 nM
- GI50 (breast cancer cell lines; Homo sapiens, MDA-MB-134-VI, 96 h): 874 nM
- IC50 (breast cancer cell lines; Homo sapiens, MDA-MB-157, 96 h): 695 nM
- GI50 (breast cancer cell lines; Homo sapiens, MDA-MB-157, 96 h): 225 nM
- IC50 (breast cancer cell lines; [2]): 8500 nM
- GI50 (breast cancer cell lines; [2]): 400 nM
- IC50 (breast cancer cell lines; Homo sapiens, MDA-MB-231, 96 h): 38 nM
- GI50 (breast cancer cell lines; Homo sapiens, MDA-MB-231, 96 h): 22 nM
- IC50 (breast cancer cell lines; Homo sapiens, MDA-MB-361, 96 h): 18800 nM
- GI50 (breast cancer cell lines; Homo sapiens, MDA-MB-361, 96 h): 5480 nM
- IC50 (breast cancer cell lines; Homo sapiens, MDA-MB-415, 96 h): 13500 nM
- GI50 (breast cancer cell lines; Homo sapiens, MDA-MB-415, 96 h): 11700 nM
- IC50 (breast cancer cell lines; Homo sapiens, MDA-MB-436, 96 h): 2100 nM
- GI50 (breast cancer cell lines; Homo sapiens, MDA-MB-436, 96 h): 1380 nM
- IC50 (breast cancer cell lines; Homo sapiens, MDA-MB-453, 96 h): 2790 nM
- GI50 (breast cancer cell lines; Homo sapiens, MDA-MB-453, 96 h): 799 nM
- IC50 (breast cancer cell lines; Homo sapiens, MDA-MB-468, 96 h): 32 nM
- GI50 (breast cancer cell lines; Homo sapiens, MDA-MB-468, 96 h): 27 nM
- IC50 (breast cancer cell lines; Homo sapiens, SK-BR-3, 96 h): 3690 nM
- GI50 (breast cancer cell lines; Homo sapiens, SK-BR-3, 96 h): 1180 nM
- IC50 (breast cancer cell lines; Homo sapiens, T47D, 96 h): 418 nM
- GI50 (breast cancer cell lines; Homo sapiens, T47D, 96 h): 162 nM
- IC50 (breast cancer cell lines; Homo sapiens, UACC-812, 96 h): 1790 nM
- GI50 (breast cancer cell lines; Homo sapiens, UACC-812, 96 h): 842 nM
- IC50 (breast cancer cell lines; Homo sapiens, ZR-75-1, 96 h): 6390 nM
- GI50 (breast cancer cell lines; Homo sapiens, ZR-75-1, 96 h): 1140 nM
- IC50 (breast cancer cell lines; Homo sapiens, ZR-75-30, 96 h): 30000 nM
- GI50 (breast cancer cell lines; Homo sapiens, ZR-75-30, 96 h): 11600 nM
- IC50 (breast cancer cell lines; KPL-1, 96 h): 693 nM
- GI50 (breast cancer cell lines; KPL-1, 96 h): 245 nM
- IC50 ([1]; Homo sapiens, A549, 72 h, read-out: Average IC50 (μM)): 0.05 µM
- IC50 ([1]; Homo sapiens, HOP-62, 72 h, read-out: Average IC50 (μM)): 0.05 µM
- IC50 ([1]; Homo sapiens, HOP-92, 72 h, read-out: Average IC50 (μM)): 1.27 µM
- IC50 ([1]; Homo sapiens, NCI-H441, 72 h, read-out: Average IC50 (μM)): 2.1 µM
- IC50 ([1]; Homo sapiens, NCI-H460, 72 h, read-out: Average IC50 (μM)): 0.04 µM
- IC50 ([1]; Homo sapiens, NCI-H1299, 72 h, read-out: Average IC50 (μM)): 0.36 µM
- IC50 ([1]; Homo sapiens, NCI-H1437, 72 h, read-out: Average IC50 (μM)): 0.39 µM
- IC50 ([1]; Homo sapiens, NCI-H1563, 72 h, read-out: Average IC50 (μM)): 1.77 µM
- IC50 ([1]; Homo sapiens, NCI-H1650, 72 h, read-out: Average IC50 (μM)): 0.62 µM
- IC50 ([1]; Homo sapiens, NCI-H1734, 72 h, read-out: Average IC50 (μM)): 0.91 µM
- IC50 ([1]; Homo sapiens, NCI-H1838, 72 h, read-out: Average IC50 (μM)): 16.1 µM
- IC50 ([1]; Homo sapiens, NCI-H2228, 72 h, read-out: Average IC50 (μM)): 1.58 µM
- IC50 ([1]; Homo sapiens, NCI-H2291, 72 h, read-out: Average IC50 (μM)): 16.3 µM
- IC50 ([1]; Homo sapiens, SK-LU-1, 72 h, read-out: Average IC50 (μM)): 0.83 µM
- IC50 ([1]; Homo sapiens, SW1573, 72 h, read-out: Average IC50 (μM)): 0.96 µM
- IC50 ([1]; read-out: growth inhibition IC50 values): ≤ 2 µM
- inhibition at 3 µM (CLK1): 91%
- inhibition at 3 µM (CLK2): 104%
